Results reported in patent US20120157717A1, “METHODS AND COMPOSITIONS FOR PRODUCING LINEAR ALKYL BENZENES” (LS9, INC., priority 2010, published 2012).
Where two headings read alike, the source gives them in different places.

T1: PCC7942_orf1594 protein (Synechococcus elongatus, UniProt Q54765)
T1 construct: His-tag (C); made in house; host or cells: E. coli BL21 (DE3)
T1 sequence (Q54765 1-341): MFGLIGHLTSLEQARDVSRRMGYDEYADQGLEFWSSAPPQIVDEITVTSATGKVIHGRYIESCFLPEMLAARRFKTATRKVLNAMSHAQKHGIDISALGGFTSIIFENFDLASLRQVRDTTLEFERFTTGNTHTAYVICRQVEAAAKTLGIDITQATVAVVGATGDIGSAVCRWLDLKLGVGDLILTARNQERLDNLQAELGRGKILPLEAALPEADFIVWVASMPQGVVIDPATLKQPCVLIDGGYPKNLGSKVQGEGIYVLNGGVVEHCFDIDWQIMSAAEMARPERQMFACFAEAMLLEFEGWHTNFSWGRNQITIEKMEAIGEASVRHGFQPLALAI

B1: Synechococcus elongatus PCC7942 YP-400611 (Synpcc7942-1594) acyl-ACP reductase, purified with C-terminal His-tag (protein)
chain: T1 sequence (Q54765 1-341)

Assays:
PCC7942_orf1594 protein = target: T1, PCC7942_orf1594 protein; assay: acyl-ACP or acyl-CoA reductase enzyme assay (aldehyde formed, GC/MS); format: biochemical, Synechococcus elongatus PCC7942
Experimental: The genomic DNA encoding S. elongatus […] orf1594 (SEQ ID NO:65) was cloned into the NcoI and XhoI sites of vector pET-28b under the control of the T7 promoter. The resulting PCC7942_orf1594 protein contained a C-terminal His-tag. An E. coli BL21 strain (DE3) (Invitrogen) was transformed with the plasmid and PCC7942_orf1594 protein was expressed and purified as described in Example 22. The protein solution was stored in the following buffer: 50 mM sodium phosphate, pH 7.5, 100 mM NaCl, 1 mM THP, 10% glycerol. Protein concentration was determined using the Bradford assay (Biorad). 2 mg/mL of PCC7942_orf1594 protein was obtained.
To test PCC7942_orf1594 protein for acyl-ACP or acyl-CoA reductase activity, the following enzyme assays were set-up. 100 μL reactions were set-up in 50 mM Tris-HCl buffer at pH 7.5 with the following components at their respective final concentrations: 10 μM of purified PCC7942_orf1594 protein, 0.01-1 mM acyl-CoA or acyl-ACP, 2 mM MgCl2, 0.2-2 mM NADPH. The reactions were incubated for 1 h at 37° C. and where stopped by adding 100 μL ethyl acetate (containing 5 mg/l 1-octadecene as internal standard). Samples were vortexed for 15 min and centrifuged at max speed for 3 min for phase separation. 80 μL of the top layer were transferred into GC glass vials and analyzed by GC/MS as described in Example 26. The amount of aldehyde formed was calculated based on the internal standard.

[1] = test system: Prochlorococcus marinus CCMP1986 PMM0532 (NP-892650; putative decarbonylase)
[2] = in the presence of 2 mM NADPH, 10 μM purified enzyme, 2 mM MgCl2, pH 7.5, 1 h at 37° C., read-out: Km for the reduction of the acyl substrate

Molecule | Km (PCC7942_orf1594 protein; [2]) [µM] | other results
octadecenoyl-CoA | 82 ± 22 | –
CCCCCCCCCCCCCCCCCC(=O)SCCNC(=O)CCNC(=O)[C@H](O)C(C)(C)COP(=O)(O)OP(=O)(O)OC[C@H]1O[C@@H](n2cnc3c(N)ncnc32)[C@H](O)[C@@H]1OP(=O)(O)O [octadecanoyl-CoA] | 45 ± 20 | –
Prochlorococcus marinus CCMP1986 PMM0533 (NP-892651; putative aldehyde-generating enzyme) | – | hydrocarbon and fatty alcohol production by cotransformed E. coli MG1655 (GC/MS) [1]: E. coli cells transformed with only the P. marinus CCMP1986 PMM0533-bearing vector did not produce any fatty aldehydes or fatty alcohols. However, E. coli cells cotransformed with PMM0533 and PMM0532-bearing vectors produced hexadecanol, pentadecane and heptadecene
octadecenoyl-ACP | 7.8 ± 2 | –
NC(=O)C1=CN([C@@H]2O[C@H](COP(=O)(O)OP(=O)(O)OC[C@H]3O[C@@H](n4cnc5c(N)ncnc54)[C@H](OP(=O)(O)O)[C@@H]3O)[C@@H](O)[C@H]2O)C=CC1 [NADPH, reference compound] | – | Km (PCC7942_orf1594 protein; in the presence of 0.5 mM octadecanoyl-CoA, read-out: Km value for NADPH): 400 ± 80 µM
B1 | – | Km for the reduction of octadecenoyl-ACP in the presence of 2 mM NADPH (in vitro reductase assay, GC/MS) (octadecenoyl-ACP): 7.8 ± 2 µM
